Test system: platelet aggregation
Test: Platelet aggregation-inhibiting action (TAI), collagen-induced, turbidometric, in platelet-rich citrate plasma
Type: cell-based
Details: Homo sapiens, 0.1 h, range of the minimum effective concentration, PRP from healthy donors, 37° C., 6 minutes, read-out: TAI threshold concentration
Protocol: Blood from healthy donors of both sexes was used for the determination of the platelet aggregation-inhibiting action. As an anticoagulant, 9 parts of blood were admixed to one part of 3.8% strength aqueous sodium citrate solution. Platelet-rich citrate plasma (PRP)^1 is obtained from this blood by means of centrifugation (Jurgens/Beller, Klinische Methoden der Blutgerinnungsanalyse (Clinical Methods of Blood Coagulation Analysis); Thieme Verlag, Stuttgart, 1959).
For these investigations, 0.8 ml of (PRP)^1 and 0.1 ml of the active compound solution were preincubated in a water bath at 37° C. The platelet aggregation was then determined by the turbidometric method (Born, G.V.R., J. Physiol. (London), 162, 67, 1962) in an aggregometer at 37° C. (Therapeutische Berichte 47, 80-86, 1975). To this end, 0.1 ml of collagen, an aggregation-inducing agent, was added to the preincubated sample. The change in the optical density in the sample of the (PRP) was recorded during a period of 6 minutes and the result was determined after 6 minutes. To do this, the percentage inhibition was calculated compared to the control.
The range of the minimum effective concentration was given as the threshold concentration.

| SMILES | minimal effective concentration |
| --- | --- |
| O=C(O)CCCCON=C(c1cccnc1)c1cccc(NS(=O)(=O)c2ccc(Cl)cc2)c1 (mixture of isomers) [Example I, (E/Z)-5-[[[3-Pyridinyl-3-(4-chlorophenylsulphonamido)phenyl]methylene]iminooxy]pentanecarboxylic acid] | 0.3 to 1 µg/mL |
| O=C(O)CCCCC=C(c1cccnc1)c1cccc(NS(=O)(=O)c2ccc(Cl)cc2)c1 (mixture of isomers) [Example XV] | 3 to 10 µg/mL |
| O=C(O)CCCCCCON=C(c1cccnc1)c1cccc(NS(=O)(=O)c2ccc(Cl)cc2)c1 (mixture of isomers) [XIII, (E/Z)-7-[[[3-Pyridinyl-3-(4-chlorophenylsulphonamido)phenyl]methylene]iminooxy]heptane-carboxylic acid] | > 10 µg/mL |
| O=C(O)CCCCON=C(c1cccnc1)c1cccc(NS(=O)(=O)c2ccc(F)cc2)c1 [II] | 1 to 3 µg/mL |
| O=C(O)CCCCCON=C(c1cccnc1)c1cccc(NS(=O)(=O)c2ccc(Cl)cc2)c1 [XII] | 1 to 3 µg/mL |
| O=C(O)CCCCCC(c1cccnc1)c1cccc(NS(=O)(=O)c2ccc(Cl)cc2)c1 (stereo not drawn) [XXVI] | 0.1 to 0.3 µg/mL |

— patent US5155121A, “Phenylsulphonamide substituted pyridinealkene- and aminooxyalkanecarboxylic acid derivatives” (Bayer Aktiengesellschaft, priority 1990, dated 1992)
